Assay results published in PubChem BioAssay AID1259411 (Chemical Carcinogenesis Research Information System (CCRIS), 2018).
Activity calls are given as the source filed them. The rule behind the calls is not given here.

System: rodent carcinogenicity bioassays, tumor incidence
Test: CCRIS carcinogenicity studies
Summary of the method: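 Archive of carcinogenicity, mutagenicity, tumor promotion and tumor inhibition results drawn from journals, NCI reports and other sources, expert-reviewed; covers 1985-2011 and is no longer updated.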

**Q.** Which results are given for `O=C1O[C@H]([C@@H](O)CO)C(O)=C1O`?
**A.** carcinogen call (Species: MOUSE, Strain/Sex: B6C3F1/FEMALE, Route: ORAL, Dose: 0, 25000, 50000 PPM IN DIET FOR 103 WK, Dose: 0, 25000, 50000 PPM IN DIET FOR 103 WK): inactive; negative; carcinogen call (Species: MOUSE, Strain/Sex: B6C3F1/MALE, Route: ORAL, Dose: 0, 25000, 50000 PPM IN DIET FOR 103 WK, Dose: 0, 25000, 50000 PPM IN DIET FOR 103 WK): inactive; negative; carcinogen call (Species: RAT, Strain/Sex: F344/FEMALE, Route: ORAL, Dose: 0, 25000, 50000 PPM IN DIET FOR 103 WK, Dose: 0, 25000, 50000 PPM IN DIET FOR 103 WK): inactive; negative; carcinogen call (Species: RAT, Strain/Sex: F344/MALE, Route: ORAL, Dose: 0, 1, 5, 7% IN DIET OF MALE RATS, PARENTAL GENERATION ALSO FED SODIUM ASCORBATE FOR 4 WK BEFORE MATING THEN CONTINUING I, Dose: 0, 1, 5, 7% IN DIET OF MALE RATS, PARENTAL GENERATION ALSO FED SODIUM ASCORBATE FOR 4 WK BEFORE MATING THEN CONTINUING I): inactive; negative; carcinogen call (Species: RAT, Strain/Sex: F344/MALE, Route: ORAL, Dose: 0, 25000, 50000 PPM IN DIET FOR 103 WK, Dose: 0, 25000, 50000 PPM IN DIET FOR 103 WK): inactive; negative; carcinogen call (Species: Rat, Strain/Sex: F344/Male (9-15/group), Route: Oral, Dose: 0, 1%, 1% with 0.2% sodium nitrite in diet for 32 wk, study duration 32 wk in surgically altered rats to produce chronic, Dose: 0, 1%, 1% with 0.2% sodium nitrite in diet for 32 wk, study duration 32 wk in surgically altered rats to produce chronic, Tumor Site: Type of Lesion: Esophagus examined): inactive; negative (significant increase in hyperplasia observed in combined chemical grou; carcinogen call (Species: Rat, Strain/Sex: Non-tg/Male, Route: Oral, Dose: 5% sodium ascorbate in diet, continuous, for 57 wk until sacrifice, Tumor Site: Type of Lesion: Total tumor-bearing animals (20.0% in experimental animals vs 25.0% in controls), no bladder tumors): inactive; negative. parallel experiment in hras128 rat line was conducted to determine bla

**Q.** What does the source list for `[C-]#[Si+]`?
**A.** carcinogen call (Species: RAT, Strain/Sex: AF/HAN, Route: INHALATION, Dose: 0, 1000 FIBERS/ML IN AIR 7 HR/D 5 D/WK FOR 1 YR (STUDY DURATION: LIFESPAN), Tumor Site: Type of Lesion: LUNG: ADENOMA, CARCINOMA): active; positive; carcinogen call (Species: RAT, Strain/Sex: F344/FEMALE, Route: INTRAPERITONEAL, Dose: 0, 20 MG SILICON CARBIDE WHISKERS ONCE (STUDY DURATION: LIFESPAN), Tumor Site: Type of Lesion: PLEURAL CAVITY: MESOTHELIOMA): active; positive

**Q.** `C=C(C#N)C(=O)OCC(C)C` was tested. Which carcinogen call (Species: RAT, Strain/Sex: F344/FEMALE, Route: IMPLANT, Dose: 0, 10, 100 µL INTO VENTRAL LIVER CAPSULE ONCE (STUDY DURATION: 2 YR), Dose: 0, 10, 100 µL INTO VENTRAL LIVER CAPSULE ONCE (STUDY DURATION: 2 YR), Tumor Site: Type of Lesion: BODY CAVITY: SARCOMA) did it give?
**A.** active; positive

**Q.** And the carcinogen call (Species: RAT, Strain/Sex: F344/MALE, Route: IMPLANT, Dose: 0, 10, 100 µL INTO VENTRAL LIVER CAPSULE ONCE (STUDY DURATION: 2 YR), Dose: 0, 10, 100 µL INTO VENTRAL LIVER CAPSULE ONCE (STUDY DURATION: 2 YR), Tumor Site: Type of Lesion: BODY CAVITY: SARCOMA)?
**A.** active; positive
